Data from patent USRE38132E1, “Phenylpyrrolidines, phenylimidazolidines,3-phenyl-1,3-oxizolidines and 3-phenyl-1,3-thiazolidines and their use in the treatment of inflammatory disease” (Boehringer Ingelheim Pharmaceuticals, Inc., priority 1997, dated 2003).

How the values were obtained:
[1] = test system: cell bound form of LFA-1 (CD18, CD11a) with ICAM-1, SKW3 cells; assay: Inhibition of SKW3 cell binding to ICAM-1 (PMA-stimulated); type: cell-based, human; conditions: Homo sapiens, SKW3, values marked c: no inhibition observed up to highest dose; read-out: Assay to Detect SKW3 Cells Binding to ICAM IC50
Method in brief: (§1)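 Compound-treated, PMA-stimulated human T-cell line SKW3 (50 μg/mL PMA final) allowed to adhere for 2 h at 37° C to wells coated with sICAM-1 at 40 μg/mL or fibronectin at 100 μg/mL. After gentle RPMI wash, 50% inhibition concentration or range reported in μM.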

[2] = test system: cell bound fibronectin receptor (VLA4) with fibronectin, SKW3 cells; assay: Inhibition of SKW3 cell binding to fibronectin (selectivity counter-assay); type: cell-based, human
Method in brief: as §1

[3] = test system: human MLR, peripheral blood mononuclear cells; assay: Inhibition of the mixed lymphocyte reaction (MLR), tritiated thymidine uptake; type: cell-based; design: key: Data are reported as “+” or “−” at a given concentration (in μM); Data are reported as “+” or “−” at a given concentration (in μM)
Description: Assay to Determine Inhibition the Mixed Lymphocyte Reaction
As discussed above, ICAM-1 is necessary for effective cellular interactions during an immune response mediated through LFA-1-dependent cell adhesion. When lymphocytes from two unrelated individuals are cultured together, blast transformation and cell proliferation of the lymphocytes are observed. This response is known as a mixed lymphocyte reaction (MLR) and is analogous to the response of lymphocytes to the 10 addition of antigens or mitogens (Immunology: The Science of Self-Nonself Discrimination; Klein, J., Ed.; John Wiley & Sons: NY, 1982, pp 453-458).
This assay protocol is used to determine the effect of a test compound on the human MLR.
Description of Assay Protocol:
Peripheral blood is obtained from normal, healthy donors by venipuncture. The blood is collected in heparinized tubes and diluted 1:1 at room temperature with Puck's G (GIBCO) balanced salt solution (BSS). The blood mixture (20 mL) is layered over 15 mL of a Ficoll/Hypaque density gradient (Pharmacia, density=1.078, room temperature) and centrifuged at 1000·g for 20 minutes. The interface is then collected and washed 3 times in Puck's G. The cells are counted on a hemocytometer and resuspended in RPMI 1640 culture medium (GIBCO) containing 0.5% of gentamicin, 1 mM L-glutamine (GICO) and 5% heat inactivated (56° C., 30 min) human AB sera (Flow Laboratories) (hereafter referred to as RPMI-culture medium).
Stimulator cells (cells that have been treated with irradiation so that they are unable to proliferate) from a separate donor are cultured with the responder cells at the same concentration. Test compound is added to wells at various concentrations. The total volume per culture is 0.2 mL. Controls include compound vehicle alone (DMSO), responder cells alone, and stimulator cells alone. The culture plates are incubated at 37° C. in a 5% CO2-humidified air atmosphere for 5 days.
The wells are pulsed with 0.5 μCi of tritiated thymidine (^3HT) (New England Nuclear) for the last 18 h of culture. In some cases a two-way MLR can be performed. The protocol is the same except that the second donor's cells are not inactivated by irradiation.
The cells are harvested onto glass fiber filters using an automated multiple sample harvester (Skatron, Norway), and rinsed with water and methanol. The filters are oven dried and counted in Aquasol in a Beckman (LS-3801) liquid scintillation counter.
Data are reported as “+” or “−” at a given concentration (in μM).

Structure (SMILES)	IC50 [1]	Assay to Detect SKW3 Cells Binding to FIBRONECTIN IC50 ([2]; values marked c: no inhibition observed up to highest dose)	Mixed Lymphocyte Reaction MLR +/− ([3]; at 50 μM)	IC50 ([2]; Homo sapiens, SKW3, values marked c: no inhibition observed up to highest dose, read-out: Assay to Detect SKW3 Cells Binding to FIBRONECTIN IC50)	Mixed Lymphocyte Reaction MLR +/− ([3]; at 25 μM)
C[C@]1(Cc2ccc(Br)cc2)NC(=O)N(c2cc(Cl)cc(Cl)c2)C1=O [Example 29]	8 µM	No inh^c	+(50)		
CC(=O)N1C(=O)N(c2cc(Cl)cc(Cl)c2)C(=O)[C@@]1(C)Cc1ccc(Br)cc1 [Example 102]	25 to 50 µM			> 200 µM	+(25)
